Laboratory results taken from US11339163B2, “BRaf inhibitors and use thereof for treatment of cutaneous reactions” (Lutris Pharma Ltd., priority 2017, dated 2022).

Experiments:
minipigs = test: MTD Dermal Minipigs; type: in vivo; conditions: 5 mg/kg/day for up to 6 days
KDR(h) = KDR(h) (Homo sapiens, UniProt P35968); test: KinaseProfiler kinase selectivity assay; type: biochemical
Experimental: (§1) All compounds were prepared to 50× final assay concentration in 100% DMSO. This working stock of the compound was added to the assay well as the first component in the reaction, followed by the remaining components. In the standard KinaseProfiler™ service, there is no pre-incubation step between the compound and the kinase prior to initiation of the reaction. The positive control wells contain all components of the reaction, except the compound of interest; however, DMSO (at a final concentration of 2%) is included in these wells to control for solvent effects. The blank wells contain all components of the reaction, with a reference inhibitor replacing the compound of interest. This abolishes kinase activity and establishes the base-line (0% kinase activity remaining).

Rse(h) = Rse(h) (Homo sapiens, UniProt Q06418); test: KinaseProfiler kinase selectivity assay; type: biochemical
Experimental: as §1

CDK6/cyclinD3(h) = CDK6/cyclinD3(h) (Homo sapiens, UniProt Q00534); test: KinaseProfiler kinase selectivity assay; type: biochemical
Experimental: as §1

CK2α2(h) = CK2α2(h) (Homo sapiens, UniProt P19784); test: KinaseProfiler kinase selectivity assay; type: biochemical
Sequence of CK2α2(h) (P19784 whole entry): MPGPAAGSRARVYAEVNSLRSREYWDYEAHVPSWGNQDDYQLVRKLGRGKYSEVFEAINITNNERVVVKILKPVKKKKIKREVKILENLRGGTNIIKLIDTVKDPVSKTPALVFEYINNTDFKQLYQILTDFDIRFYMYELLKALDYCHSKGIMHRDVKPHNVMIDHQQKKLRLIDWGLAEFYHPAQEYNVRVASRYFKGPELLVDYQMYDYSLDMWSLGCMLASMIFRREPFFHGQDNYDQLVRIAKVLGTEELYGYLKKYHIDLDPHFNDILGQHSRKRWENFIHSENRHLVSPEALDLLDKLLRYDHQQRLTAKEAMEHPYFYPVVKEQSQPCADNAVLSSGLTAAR
Experimental: as §1

EGFR(h) = EGFR(h) (Homo sapiens, UniProt P00533); test: KinaseProfiler kinase selectivity assay; type: biochemical
Sequence of EGFR(h) (P00533 25-1210): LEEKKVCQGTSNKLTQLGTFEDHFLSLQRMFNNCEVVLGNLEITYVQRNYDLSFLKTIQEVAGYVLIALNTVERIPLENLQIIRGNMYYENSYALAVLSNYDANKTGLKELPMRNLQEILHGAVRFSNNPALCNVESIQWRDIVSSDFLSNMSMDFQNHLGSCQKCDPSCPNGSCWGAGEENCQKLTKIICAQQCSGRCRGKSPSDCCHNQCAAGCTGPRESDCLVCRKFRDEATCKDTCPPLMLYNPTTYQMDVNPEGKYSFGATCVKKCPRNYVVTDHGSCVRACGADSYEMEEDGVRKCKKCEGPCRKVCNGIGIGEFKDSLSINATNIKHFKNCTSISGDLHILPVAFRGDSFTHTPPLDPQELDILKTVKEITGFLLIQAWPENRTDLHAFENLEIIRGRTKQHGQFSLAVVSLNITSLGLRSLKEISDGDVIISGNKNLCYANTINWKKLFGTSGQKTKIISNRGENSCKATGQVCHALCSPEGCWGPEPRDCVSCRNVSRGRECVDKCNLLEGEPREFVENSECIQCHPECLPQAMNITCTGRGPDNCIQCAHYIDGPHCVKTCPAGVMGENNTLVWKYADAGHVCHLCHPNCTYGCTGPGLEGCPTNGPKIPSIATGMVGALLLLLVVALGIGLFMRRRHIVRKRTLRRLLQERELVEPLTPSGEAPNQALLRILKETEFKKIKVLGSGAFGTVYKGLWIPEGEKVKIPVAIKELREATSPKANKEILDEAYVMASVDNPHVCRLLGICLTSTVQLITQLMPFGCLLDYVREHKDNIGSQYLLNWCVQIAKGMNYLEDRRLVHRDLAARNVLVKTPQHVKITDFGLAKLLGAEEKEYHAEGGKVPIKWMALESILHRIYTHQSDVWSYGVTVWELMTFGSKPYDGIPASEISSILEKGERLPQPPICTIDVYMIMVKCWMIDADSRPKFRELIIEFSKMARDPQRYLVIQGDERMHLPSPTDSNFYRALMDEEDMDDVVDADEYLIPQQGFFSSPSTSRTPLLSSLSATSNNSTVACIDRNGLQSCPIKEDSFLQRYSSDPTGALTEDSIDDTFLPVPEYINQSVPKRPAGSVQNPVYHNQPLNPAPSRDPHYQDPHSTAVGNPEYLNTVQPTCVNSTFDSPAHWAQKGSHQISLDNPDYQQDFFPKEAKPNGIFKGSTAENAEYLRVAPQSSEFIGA
Experimental: as §1

PAK2(h) = PAK2(h) (Homo sapiens, UniProt Q13177); test: KinaseProfiler kinase selectivity assay; type: biochemical
Sequence of PAK2(h) (Q13177 whole entry): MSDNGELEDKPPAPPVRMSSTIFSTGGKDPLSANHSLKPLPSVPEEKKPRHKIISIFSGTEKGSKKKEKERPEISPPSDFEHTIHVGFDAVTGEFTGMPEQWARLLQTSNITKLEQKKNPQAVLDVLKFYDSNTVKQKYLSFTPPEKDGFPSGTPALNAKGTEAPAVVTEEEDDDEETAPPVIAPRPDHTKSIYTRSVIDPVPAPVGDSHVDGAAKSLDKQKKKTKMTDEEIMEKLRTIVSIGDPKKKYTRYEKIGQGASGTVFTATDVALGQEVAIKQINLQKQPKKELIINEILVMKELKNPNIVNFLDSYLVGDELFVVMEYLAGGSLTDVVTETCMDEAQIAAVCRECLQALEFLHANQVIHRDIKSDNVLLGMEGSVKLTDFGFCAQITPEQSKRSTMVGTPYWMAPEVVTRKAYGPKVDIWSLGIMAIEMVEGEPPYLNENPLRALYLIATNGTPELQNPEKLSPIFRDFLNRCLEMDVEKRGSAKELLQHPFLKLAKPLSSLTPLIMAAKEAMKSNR
Experimental: as §1

MAPKAP-K2(h) = MAPKAP-K2(h) (Homo sapiens, UniProt P49137); test: KinaseProfiler kinase selectivity assay; type: biochemical
Experimental: as §1

Lyn(h) = Lyn(h) (Homo sapiens, UniProt P07948); test: KinaseProfiler kinase selectivity assay; type: biochemical
Experimental: as §1

PKCθ(h) = PKCθ(h) (Homo sapiens, UniProt Q04759); test: KinaseProfiler kinase selectivity assay; type: biochemical
Sequence of PKCθ(h) (Q04759 whole entry): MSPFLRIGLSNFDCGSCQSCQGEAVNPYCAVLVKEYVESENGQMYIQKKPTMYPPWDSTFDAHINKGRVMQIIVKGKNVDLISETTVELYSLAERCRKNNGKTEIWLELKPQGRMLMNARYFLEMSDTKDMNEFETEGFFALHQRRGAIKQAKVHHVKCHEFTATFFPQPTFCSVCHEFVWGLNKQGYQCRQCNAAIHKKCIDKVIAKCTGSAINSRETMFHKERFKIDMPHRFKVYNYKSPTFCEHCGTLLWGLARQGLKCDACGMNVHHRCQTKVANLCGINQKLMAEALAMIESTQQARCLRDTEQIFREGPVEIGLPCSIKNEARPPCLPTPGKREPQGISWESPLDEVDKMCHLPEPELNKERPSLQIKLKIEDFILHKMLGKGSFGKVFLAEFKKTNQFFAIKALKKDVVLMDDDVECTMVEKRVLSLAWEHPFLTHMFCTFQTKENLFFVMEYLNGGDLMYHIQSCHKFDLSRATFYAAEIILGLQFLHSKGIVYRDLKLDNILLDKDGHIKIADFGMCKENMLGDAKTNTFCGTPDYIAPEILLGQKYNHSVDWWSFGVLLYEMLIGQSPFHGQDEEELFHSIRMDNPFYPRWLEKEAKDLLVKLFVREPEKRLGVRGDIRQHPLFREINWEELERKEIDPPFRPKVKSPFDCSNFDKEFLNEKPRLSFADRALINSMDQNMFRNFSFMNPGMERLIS
Experimental: as §1

CK1γ1(h) = CK1γ1(h) (Homo sapiens, UniProt Q9HCP0); test: KinaseProfiler kinase selectivity assay; type: biochemical
Experimental: as §1

CaMKI(h) = CaMKI(h) (Homo sapiens, UniProt Q14012); test: KinaseProfiler kinase selectivity assay; type: biochemical
Sequence of CaMKI(h) (Q14012 whole entry): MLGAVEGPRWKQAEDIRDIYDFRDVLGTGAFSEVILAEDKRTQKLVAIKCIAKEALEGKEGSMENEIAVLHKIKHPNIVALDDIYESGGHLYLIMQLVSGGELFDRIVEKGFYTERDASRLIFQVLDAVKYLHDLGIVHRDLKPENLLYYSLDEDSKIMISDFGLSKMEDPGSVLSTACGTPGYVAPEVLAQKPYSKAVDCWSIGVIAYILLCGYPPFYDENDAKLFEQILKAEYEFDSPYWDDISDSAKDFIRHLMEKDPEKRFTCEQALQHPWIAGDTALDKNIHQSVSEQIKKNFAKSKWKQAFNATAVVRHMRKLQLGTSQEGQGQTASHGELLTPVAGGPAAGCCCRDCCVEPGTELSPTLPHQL
Experimental: as §1

CHK1(h) = CHK1(h) (Homo sapiens, UniProt O14757); test: KinaseProfiler kinase selectivity assay; type: biochemical
Experimental: as §1

Pim-1(h) = Pim-1(h) (Homo sapiens, UniProt P11309); test: KinaseProfiler kinase selectivity assay; type: biochemical
Experimental: as §1

PKG1α(h) = PKG1α(h) (Homo sapiens, UniProt Q13976); test: KinaseProfiler kinase selectivity assay; type: biochemical
Sequence of PKG1α(h) (Q13976 whole entry): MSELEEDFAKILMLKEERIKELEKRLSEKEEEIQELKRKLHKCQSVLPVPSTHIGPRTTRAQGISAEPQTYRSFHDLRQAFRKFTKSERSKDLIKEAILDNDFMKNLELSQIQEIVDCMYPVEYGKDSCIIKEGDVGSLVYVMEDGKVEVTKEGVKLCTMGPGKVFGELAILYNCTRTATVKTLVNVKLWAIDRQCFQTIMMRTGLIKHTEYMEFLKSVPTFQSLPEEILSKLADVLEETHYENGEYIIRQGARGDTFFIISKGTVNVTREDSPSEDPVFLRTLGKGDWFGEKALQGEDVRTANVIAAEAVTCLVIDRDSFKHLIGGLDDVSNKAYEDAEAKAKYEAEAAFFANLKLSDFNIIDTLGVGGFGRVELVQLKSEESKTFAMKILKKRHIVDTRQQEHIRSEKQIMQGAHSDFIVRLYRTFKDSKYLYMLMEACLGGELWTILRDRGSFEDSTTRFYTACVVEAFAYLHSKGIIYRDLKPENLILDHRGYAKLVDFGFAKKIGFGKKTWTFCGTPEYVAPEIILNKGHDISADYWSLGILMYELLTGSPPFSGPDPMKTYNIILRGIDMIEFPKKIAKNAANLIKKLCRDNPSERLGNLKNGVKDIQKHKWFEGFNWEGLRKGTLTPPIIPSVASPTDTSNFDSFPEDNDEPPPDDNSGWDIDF
Experimental: as §1

EphB4(h) = EphB4(h) (Homo sapiens, UniProt P54760); test: KinaseProfiler kinase selectivity assay; type: biochemical
Experimental: as §1

Rsk1(h) = Rsk1(h) (Homo sapiens, UniProt Q15418); test: KinaseProfiler kinase selectivity assay; type: biochemical
Sequence of Rsk1(h) (Q15418 whole entry): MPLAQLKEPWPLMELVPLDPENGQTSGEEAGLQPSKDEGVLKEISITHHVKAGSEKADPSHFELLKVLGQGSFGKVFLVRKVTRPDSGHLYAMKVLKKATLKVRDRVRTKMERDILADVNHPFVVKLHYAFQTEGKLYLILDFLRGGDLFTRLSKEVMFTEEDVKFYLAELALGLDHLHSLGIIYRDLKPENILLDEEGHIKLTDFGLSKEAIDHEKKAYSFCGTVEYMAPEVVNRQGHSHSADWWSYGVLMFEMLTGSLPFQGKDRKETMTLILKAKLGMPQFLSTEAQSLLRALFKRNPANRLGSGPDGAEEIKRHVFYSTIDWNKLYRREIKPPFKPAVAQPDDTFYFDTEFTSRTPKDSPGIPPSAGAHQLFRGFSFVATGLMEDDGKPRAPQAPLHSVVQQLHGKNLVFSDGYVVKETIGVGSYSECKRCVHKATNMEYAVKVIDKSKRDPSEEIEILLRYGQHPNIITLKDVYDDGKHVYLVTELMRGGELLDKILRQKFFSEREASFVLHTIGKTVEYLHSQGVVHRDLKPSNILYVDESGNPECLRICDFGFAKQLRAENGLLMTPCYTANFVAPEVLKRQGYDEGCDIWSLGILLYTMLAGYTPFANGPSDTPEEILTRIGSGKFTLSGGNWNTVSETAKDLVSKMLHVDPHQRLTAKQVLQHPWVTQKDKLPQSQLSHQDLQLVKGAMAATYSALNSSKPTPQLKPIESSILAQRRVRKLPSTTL
Experimental: as §1

Mnk2(h) = Mnk2(h) (Homo sapiens, UniProt Q9HBH9); test: KinaseProfiler kinase selectivity assay; type: biochemical
Sequence of Mnk2(h) (Q9HBH9 whole entry): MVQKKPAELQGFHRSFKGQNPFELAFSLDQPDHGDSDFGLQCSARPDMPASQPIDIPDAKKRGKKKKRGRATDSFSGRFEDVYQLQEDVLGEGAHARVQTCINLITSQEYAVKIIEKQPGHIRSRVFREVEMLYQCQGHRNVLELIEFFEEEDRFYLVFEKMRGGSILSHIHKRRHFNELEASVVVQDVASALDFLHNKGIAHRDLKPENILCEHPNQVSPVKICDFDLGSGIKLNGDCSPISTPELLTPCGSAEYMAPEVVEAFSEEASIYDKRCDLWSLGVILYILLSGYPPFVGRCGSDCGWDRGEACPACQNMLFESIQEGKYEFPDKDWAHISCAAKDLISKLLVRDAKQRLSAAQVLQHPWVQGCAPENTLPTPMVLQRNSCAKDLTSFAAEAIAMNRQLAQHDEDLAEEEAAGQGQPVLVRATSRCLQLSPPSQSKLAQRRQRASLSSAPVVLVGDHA
Experimental: as §1

PKCα(h) = PKCα(h) (Homo sapiens, UniProt P17252); test: KinaseProfiler kinase selectivity assay; type: biochemical
Experimental: as §1

[1] = BCOP study (eye irritation)
[2] = ex vivo skin permeation and penetration, MedFlux-HT diffusion cells; type: in vitro ADME; conditions: topical composition comprising LUT014; skin sample; after 24 hours; citrate/phosphate buffer pH 4.0 with 0.01% Brij
Experimental: An ex vivo permeation and penetration experiment for a topical composition comprising LUT-014 was conducted using MedFlux-HT™ continuous flow through diffusion cells. A skin sample was placed between donor and receptor compartments of the diffusion cell. The diffusion of the topical composition was measured using a citrate/phosphate buffer (pH 4.0) with 0.01% Brij as a receptor solution. LUT014 permeated into the skin sample was extracted using 90/10 acetonitrile/water as an extraction solvent.

Salmonella typhimurium = test: In vitro Ames test, reverse mutation assay; type: cell-based

SMILES: Cc1ccc2c(Nc3cccc(OC(F)(F)F)c3)nccc2c1Nc1ncccc1-c1ncnc2[nH]cnc12 [LUT014]
- tolerability (minipigs): well tolerated in minipigs at
- remaining activity at 0.01 µM (KDR(h); Lut014 @ 0.01 μM): 96%
- remaining activity at 1 µM (KDR(h); Lut014 @ 1 μM): 79%
- remaining activity at 0.01 µM (Rse(h); Lut014 @ 0.01 μM): 106%
- remaining activity at 1 µM (Rse(h); Lut014 @ 1 μM): 113%
- remaining activity at 0.01 µM (CDK6/cyclinD3(h); Lut014 @ 0.01 μM): 100%
- remaining activity at 1 µM (CDK6/cyclinD3(h); Lut014 @ 1 μM): 103%
- remaining activity at 0.01 µM (CK2α2(h); Lut014 @ 0.01 μM): 98%
- remaining activity at 1 µM (CK2α2(h); Lut014 @ 1 μM): 92%
- remaining activity at 0.01 µM (EGFR(h); Lut014 @ 0.01 μM): 98%
- remaining activity at 1 µM (EGFR(h); Lut014 @ 1 μM): 100%
- remaining activity at 0.01 µM (PAK2(h); Lut014 @ 0.01 μM): 95%
- remaining activity at 1 µM (PAK2(h); Lut014 @ 1 μM): 111%
- remaining activity at 0.01 µM (MAPKAP-K2(h); Lut014 @ 0.01 μM): 110%
- remaining activity at 1 µM (MAPKAP-K2(h); Lut014 @ 1 μM): 103%
- remaining activity at 0.01 µM (Lyn(h); Lut014 @ 0.01 μM): 101%
- remaining activity at 1 µM (Lyn(h); Lut014 @ 1 μM): 46%
- remaining activity at 0.01 µM (PKCθ(h); Lut014 @ 0.01 μM): 106%
- remaining activity at 1 µM (PKCθ(h); Lut014 @ 1 μM): 109%
- remaining activity at 0.01 µM (CK1γ1(h); Lut014 @ 0.01 μM): 94%
- remaining activity at 1 µM (CK1γ1(h); Lut014 @ 1 μM): 101%
- remaining activity at 0.01 µM (CaMKI(h); Lut014 @ 0.01 μM): 101%
- remaining activity at 1 µM (CaMKI(h); Lut014 @ 1 μM): 97%
- remaining activity at 0.01 µM (CHK1(h); Lut014 @ 0.01 μM): 100%
- remaining activity at 1 µM (CHK1(h); Lut014 @ 1 μM): 114%
- remaining activity at 0.01 µM (Pim-1(h); Lut014 @ 0.01 μM): 96%
- remaining activity at 1 µM (Pim-1(h); Lut014 @ 1 μM): 89%
- remaining activity at 0.01 µM (PKG1α(h); Lut014 @ 0.01 μM): 99%
- remaining activity at 1 µM (PKG1α(h); Lut014 @ 1 μM): 111%
- remaining activity at 0.01 µM (EphB4(h); Lut014 @ 0.01 μM): 93%
- remaining activity at 1 µM (EphB4(h); Lut014 @ 1 μM): 38%
- remaining activity at 0.01 µM (Rsk1(h); Lut014 @ 0.01 μM): 106%
- remaining activity at 1 µM (Rsk1(h); Lut014 @ 1 μM): 112%
- remaining activity at 0.01 µM (Mnk2(h); Lut014 @ 0.01 μM): 112%
- remaining activity at 1 µM (Mnk2(h); Lut014 @ 1 μM): 107%
- remaining activity at 0.01 µM (PKCα(h); Lut014 @ 0.01 μM): 102%
- remaining activity at 1 µM (PKCα(h); Lut014 @ 1 μM): 107%
- IVIS [1]: ≤ 3
- classification for eye irritation or serious eye damage [1]: no classification is required
- maximum accumulated level of LUT014 in the receptor solution [2]: less than 2 ng/mL
- mutagenicity, Salmonella typhimurium reverse mutation assay (Salmonella typhimurium): not mutagenic
